According to patent US4078079A, “Thiocyano-xanthate miticides” (Stauffer Chemical Company, priority 1976, dated 1978):
Converted amounts (≈) assume the structure as drawn. Where two headings read alike, the source gives them in different places.

What was measured:
[1] = tested on: Two-spotted Mite (2-SM) Tetranychus urticae (Koch) eggs; test: Plant Dip Assay on Two-Spotted Mite, 2-SM Eggs; assay type: in vivo; details: infested Pinto Bean plants dipped 2-3 seconds, mortality after seven days, nymphs hatching from eggs
From the text: (§1) The Two-spotted Mite (2-SM) Tetranychus urticae (Koch) is subjected to evaluation tests for miticidal activity. Plant Dip Assay on Two-Spotted Mite [Tetranychus urticae (Koch)] Pinto Bean plants (Phaseolus sp.) approximately 10 cm tall, are transplanted into sandy loam soil in 3 inch clay pots and thoroughly infested with two-spotted mites of mixed ages and sexes. Twenty-four hours later the infested plants are inverted and dipped for 2-3 seconds in 50-50 acetone-water solutions of the test chemicals. Treated plants are held in the greenhouse, and seven days later mortality is determined for both the adult mites and the nymphs hatching from eggs which were on the plants at the time of treatment. Test concentrations range from 0.05% down to that at which 50% mortality occurs. The values obtained in this test are found in Table VII under the Columns 2SM-PE and 2SM-Eggs.

[2] = tested on: Pencillium italicum; test: In Vitro Agar Screening Tests (Example 5); assay type: cell-based; details: Penicillium italicum, P. italicum, potato dextrose, 30° C, read-out: Minimum Inhibitory Concentration
Procedure: (§2) This test measures the bactericidal and fungicidal properties of a compound when in contact with growing bacteria or fungi in an artificial medium. The test is conducted by adding 20 ml. portions of a suitable warm sterile agar solution into 20 × 100 Petri dishes. Then, the test compound, in 0.5% acetone solution, is added to the Petri dishes at levels of 1, 5, 10 and 50 ug/ml. and mixed with the warm mobile agar solution. The treated agar mixture is then allowed to come to room temperature and solidify. Cells of the chosen organism are streaked on the surface of the solidified agar and are then incubated for such lengths of time that untreated samples containing no toxicant show luxurious growth typical of the particular organism. This time varies from 24 hours to one week depending on the particular organism. The fungi are incubated at 30° C and the bacteria are incubated at 37° C. Nutrient agar is used as the medium in this test for the bacteria. Potato dextrose is used as the medium for the fungi. The extent of growth is noted at the end of the incubation period.

[3] = tested on: Staphylococcus aureus; test: In Vitro Agar Screening Tests (Example 5); assay type: cell-based; details: S. aureus, nutrient agar, 37° C, read-out: Minimum Inhibitory Concentration
Procedure: as §2

[4] = tested on: Aspergillus niger; test: In Vitro Agar Screening Tests (Example 5); assay type: cell-based; details: A. niger, potato dextrose, 30° C, read-out: Minimum Inhibitory Concentration
Procedure: as §2

[5] = tested on: Two-spotted Mite (2-SM) Tetranychus urticae (Koch); test: Plant Dip Assay on Two-Spotted Mite, 2-SM PE; assay type: in vivo; details: infested Pinto Bean plants dipped 2-3 seconds, mortality after seven days, adult mites
From the text: as §1

[6] = tested on: Escherichia coli; test: In Vitro Agar Screening Tests (Example 5); assay type: cell-based; details: E. coli, nutrient agar, 37° C, read-out: Minimum Inhibitory Concentration
Procedure: as §2

[7] = partial control at this concentration

| SMILES | MIC [2] | MIC [3] | MIC [4] | MIC [6] | MIC [2, 7] | MIC [4, 7] | MIC [3, 7] | MIC [6, 7] | 2-SM Eggs: concentration at which 50% mortality occurs [1] | 2-SM PE: concentration at which 50% mortality occurs [5] |
| --- | --- | --- | --- | --- | --- | --- | --- | --- | --- | --- |
| N#CSCSC(=S)OCCSc1ccccc1 [Compound 9] | 1 µg/mL (≈ 3.32 µM) | 5 µg/mL (≈ 16.6 µM) | 1 µg/mL (≈ 3.32 µM) | – | – | – | – | – | > .05% | > .05% |
| N#CSCSC(=S)OCCOc1ccc(Cl)cc1Cl [Compound 18] | 5 µg/mL (≈ 14.1 µM) | 5 µg/mL (≈ 14.1 µM) | 5 µg/mL (≈ 14.1 µM) | – | – | – | – | – | – | – |
| Cc1ccc(OCCOC(=S)SCSC#N)cc1 [Compound 10] | 0.25 µg/mL (≈ 0.835 µM) | 10 µg/mL (≈ 33.4 µM) | 1 µg/mL (≈ 3.34 µM) | – | – | – | – | – | > .05% | > .05% |
| N#CSCSC(=S)OCCOc1ccc(Cl)cc1 [Compound 13] | – | 5 µg/mL (≈ 15.6 µM) | 1 µg/mL (≈ 3.13 µM) | > 50 µg/mL | 0.5 µg/mL (≈ 1.56 µM) | – | – | – | > .05% | > .05% |
| N#CSCSC(=S)OCCSc1ccc(Cl)cc1 [Compound 14] | – | < 5 µg/mL | – | > 50 µg/mL | 1 µg/mL (≈ 2.98 µM) | 1 µg/mL (≈ 2.98 µM) | – | – | .003% | .008% |
| N#CSCSC(=S)OCCSc1ccc2ccccc2c1 [Compound 15] | 5 µg/mL (≈ 14.2 µM) | – | – | > 50 µg/mL | – | 5 µg/mL (≈ 14.2 µM) | 0.25 µg/mL (≈ 0.711 µM) | – | > .05% | > .05% |
| COCCOC(=S)SCSC#N [Compound 3] | 0.5 µg/mL (≈ 2.24 µM) | 50 µg/mL (≈ 224 µM) | 5 µg/mL (≈ 22.4 µM) | 50 µg/mL (≈ 224 µM) | – | – | – | – | .01% | .01% |
| CCSCCOC(=S)SCSC#N [Compound 4] | 0.5 µg/mL (≈ 1.97 µM) | 5 µg/mL (≈ 19.7 µM) | 5 µg/mL (≈ 19.7 µM) | 50 µg/mL (≈ 197 µM) | – | – | – | – | – | – |
| N#CSCSC(=S)OCCOc1ccccc1Cl [Compound 8] | 0.5 µg/mL (≈ 1.56 µM) | 10 µg/mL (≈ 31.3 µM) | 5 µg/mL (≈ 15.6 µM) | – | – | – | – | – | – | .05% |
| CCCCOCCOCCOC(=S)SCSC#N [Compound 7] | 5 µg/mL (≈ 16.2 µM) | 5 µg/mL (≈ 16.2 µM) | 5 µg/mL (≈ 16.2 µM) | – | – | – | – | – | – | .03% |

Continued by falling MIC [3], values first:

| MIC [2] | MIC [3] | MIC [4] | MIC [6] | MIC [2, 7] | MIC [4, 7] | MIC [3, 7] | MIC [6, 7] | SMILES | 2-SM Eggs: concentration at which 50% mortality occurs [1] | 2-SM PE: concentration at which 50% mortality occurs [5] |
| --- | --- | --- | --- | --- | --- | --- | --- | --- | --- | --- |
| 0.25 µg/mL (≈ 0.876 µM) | 10 µg/mL (≈ 35 µM) | 1 µg/mL (≈ 3.5 µM) | – | – | – | – | – | N#CSCSC(=S)OCCOc1ccccc1 [Compound 2] | – | – |
| – | 5 µg/mL (≈ 15.9 µM) | 1 µg/mL (≈ 3.17 µM) | 25 µg/mL (≈ 79.3 µM) | 0.25 µg/mL (≈ 0.793 µM) | – | – | – | COc1ccc(OCCOC(=S)SCSC#N)cc1 [Compound 11] | .05% | .05% |
| – | 5 µg/mL (≈ 15.8 µM) | – | – | 0.5 µg/mL (≈ 1.58 µM) | 1 µg/mL (≈ 3.17 µM) | – | 50 µg/mL (≈ 158 µM) | Cc1ccc(SCCOC(=S)SCSC#N)cc1 [Compound 17] | > .05% | > .05% |
| 0.5 µg/mL (≈ 1.88 µM) | 5 µg/mL (≈ 18.8 µM) | 0.5 µg/mL (≈ 1.88 µM) | 50 µg/mL (≈ 188 µM) | – | – | – | – | CCCCOCCOC(=S)SCSC#N [Compound 6] | – | .03% |
| – | 5 µg/mL (≈ 16.7 µM) | 1 µg/mL (≈ 3.34 µM) | > 50 µg/mL | 0.125 µg/mL (≈ 0.417 µM) | – | – | – | Cc1ccccc1OCCOC(=S)SCSC#N [Compound 12] | .03% | .01% |
